pIC50: −log10 of the molar value.
The compounds below were run against T1, human IDO1 (Homo sapiens, UniProt P14902) (assay: IDO inhibition assay in human IDO1/HEK293 cells (IDO1 HEK Human)). Conditions: HEK293 cells stably expressing human IDO1; 20 hours incubation; absorbance at 490 nm after Ehrlich reagent.
T1 construct: expressed in transfected cells
Type: cell-based
Method: HEK293 cells were transfected with a pCDNA-based mammalian expression vector harboring human IDO1 cDNA (NM 002164.2) by electroporation. They were cultured in medium (DMEM with 10% FBS) containing 1 mg/ml G418 for two weeks. Clones of HEK293 cells that stably expressed human IDO1 protein were selected and expanded for IDO inhibition assay.
The human IDO1/HEK293 cells were seeded at 10,000 cells per 50 μL per well with RPMI/phenol red free media contains 10% FBS in a 384-well black wall clear bottom tissue culture plate (Matrix Technologies LLC) 100 nL of certain concentration of compound was then added to each well using ECHO liquid handling systems. The cells were incubated for 20 hours in 37° C. incubator with 5% CO2.
The compound treatments were stopped by adding trichloroacetic acid (Sigma-Aldrich) to a final concentration at 0.2%. The cell plate was further incubated at 50° C. for 30 minute. The equal volume supernatant (20 μL) and 0.2% (w/v) Ehrlich reagent (4-dimethylaminobenzaldehyde, Sigma-Aldrich) in glacial acetic acid were mixed in a new clear bottom 384-well plate. This plate was then incubated at RT for 30 minute. The absorbance at 490 nm was measured on Envision plate reader.
Compound IC50 values were calculated using the counts of 500 nM of a reference standard treatment as one hundred percent inhibition, and counts of no compound but DMSO treatment as zero percent inhibition.

T1 sequence (P14902 whole entry): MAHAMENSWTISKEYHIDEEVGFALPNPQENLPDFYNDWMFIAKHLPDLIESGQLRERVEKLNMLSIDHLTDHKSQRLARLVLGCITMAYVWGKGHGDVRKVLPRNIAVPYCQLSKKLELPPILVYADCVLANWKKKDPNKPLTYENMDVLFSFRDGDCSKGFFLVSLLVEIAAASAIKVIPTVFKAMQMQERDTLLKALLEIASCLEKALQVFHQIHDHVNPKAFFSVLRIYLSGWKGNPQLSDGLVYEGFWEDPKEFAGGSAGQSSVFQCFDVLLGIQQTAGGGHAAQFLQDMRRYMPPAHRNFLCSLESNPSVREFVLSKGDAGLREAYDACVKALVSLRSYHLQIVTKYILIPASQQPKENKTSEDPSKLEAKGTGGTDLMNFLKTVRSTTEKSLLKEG

First: Cc1ccc(NC(=O)Nc2cc(-c3ccccc3-c3nnn[nH]3)cc3c2O[C@@H](C)[C@H]3c2ccccc2)cc1 (relative stereo) [Example 113, rel-1-((2R,3R)-5-(2-(2H-tetrazol-5-yl)phenyl)-2-methyl-3-phenyl-2,3-dihydrobenzofuran-7-yl)-3-(p-tolyl)urea]
Second: Cc1ccc(NC(=O)Nc2cc(-c3ccccc3-c3nnn[nH]3)cc3c2O[C@H](C)[C@H]3c2ccccc2)cc1 (relative stereo) [Example 115, rel-1-((2R,3 S)-5-(2-(1H-tetrazol-5-yl)phenyl)-2-methyl-3-phenyl-2,3-dihydrobenzofuran-7-yl)-3-(p-tolyl)urea]
The pIC50 of the first is 0.44 log units lower: 7.11 for the first, 7.55 for the second. The second is the more potent here.

First: Cc1ccc(NC(=O)Nc2cc(-c3cc(F)ccc3C(=O)O)cc3c2O[C@@H](C)[C@H]3c2ccccc2)cc1 (relative stereo) [Example 114, rel-4-fluoro-2-((2R,3R)-2-methyl-3-phenyl-7-(3-(p-tolyl)ureido)-2,3-dihydrobenzofuran-5-yl)benzoic acid]
Second: Cc1ccc(NC(=O)Nc2cc(-c3cc(F)ccc3C(=O)O)cc3c2O[C@H](C)[C@H]3c2ccccc2)cc1 (relative stereo) [Example 116, rel-4-fluoro-2-((2R,3S)-2-methyl-3-phenyl-7-(3-(p-tolyl)ureido)-2,3-dihydrobenzofuran-5-yl)benzoic acid]
The pIC50 of the first is 1.01 log units lower: 5.89 for the first, 6.90 for the second.

Compared with `Cc1ccc(NC(=O)Nc2cc(-c3cc(F)ccc3C(=O)O)cc3c2O[C@@H](C)[C@H]3CCC(F)(F)F)cc1` (relative stereo) [Example 117, rel-4-fluoro-2-((2R,3R)-2-methyl-7-(3-(p-tolyl)ureido)-3-(3,3,3-trifluoropropyl)-2,3-dihydrobenzofuran-5-yl)benzoic acid], `Cc1ccc(NC(=O)Nc2cc(-c3cc(F)ccc3C(=O)O)cc3c2O[C@@H](C)[C@@H]3CCC(F)(F)F)cc1` (relative stereo) [Example 119, rel-4-fluoro-2-((2R,3S)-2-methyl-7-(3-(p-tolyl)ureido)-3-(3,3,3-trifluoropropyl)-2,3-dihydrobenzofuran-5-yl)benzoic acid] is 0.51 log units higher in pIC50: 5.60 for the first, 6.11 for the second. The second is the more potent here.

Going from `Cc1ccc(NC(=O)Nc2cc(-c3ccccc3-c3nnn[nH]3)cc3c2O[C@@H](C)[C@@H]3CCC(F)(F)F)cc1` (relative stereo) [Example 118, rel-1-((2R,3S)-5-(2-(2H-tetrazol-5-yl)phenyl)-2-methyl-3-(3,3,3-trifluoropropyl)-2,3-dihydrobenzofuran-7-yl)-3-(p-tolyl)urea] to `Cc1ccc(NC(=O)Nc2cc(-c3ccccc3-c3nnn[nH]3)cc3c2OCC(O)C(O)C3c2ccccc2)cc1` (single isomer, unassigned) [9 (En. 1), 1-(7-(2-(1H-tetrazol-5-yl)phenyl)-3,4-dihydroxy-5-phenyl-2,3,4,5-tetrahydrobenzo[b]oxepin-9-yl)-3-(p-tolyl)urea], the pIC50 falls from 7.64 to less than 5.22. The first is the more potent here.

First: Cc1ccc(NC(=O)Nc2cc(-c3ccccc3-c3nnn[nH]3)cc3c2OCC(O)C(O)C3c2ccccc2)cc1 (single isomer, unassigned) [9 (En. 2), 1-(7-(2-(1H-tetrazol-5-yl)phenyl)-3,4-dihydroxy-5-phenyl-2,3,4,5-tetrahydrobenzo[b]oxepin-9-yl)-3-(p-tolyl)urea]
Second: O=C(Nc1ccccc1F)Nc1cc(-c2ccccc2-c2nnn[nH]2)cc2c1OCCCC2c1ccccc1 (single isomer, unassigned) [10 (En.2), 1-(7-(2-(1H-tetrazol-5-yl)phenyl)-5-phenyl-2,3,4,5-tetrahydrobenzo[b]oxepin-9-yl)-3-(2-fluorophenyl)urea]
The pIC50 of the first is 1.14 log units lower: 6.24 for the first, 7.38 for the second.

Compared with `O=C(Nc1ccccc1F)Nc1cc(-c2ccccc2-c2nnn[nH]2)cc2c1OCCCC2c1ccccc1` (single isomer, unassigned) [10 (En. 1), 1-(7-(2-(1H-tetrazol-5-yl)phenyl)-5-phenyl-2,3,4,5-tetrahydrobenzo[b]oxepin-9-yl)-3-(2-fluorophenyl)urea], `O=C(Nc1ccccc1F)Nc1cc(-c2ccccc2-c2nnn[nH]2)cc2c1OCCCC2C1CC1` (single isomer, unassigned) [38 (En. 1), 1-(7-(2-(1H-tetrazol-5-yl)phenyl)-5-cyclopropyl-2,3,4,5-tetrahydrobenzo[b]oxepin-9-yl)-3-(2-fluorophenyl)urea] is 0.81 log units higher in pIC50: 5.84 for the first, 6.65 for the second.

First: O=C(Nc1cc(-c2ccccc2-c2nnn[nH]2)cc2c1OCCCC2c1ccccc1)NC1CC1 (single isomer, unassigned) [23 (En. 1), 1-(7-(2-(1H-tetrazol-5-yl)phenyl)-5-phenyl-2,3,4,5-tetrahydrobenzo[b]oxepin-9-yl)-3-cyclopropylurea]
Second: O=C(Nc1ccccc1F)Nc1cc(-c2ccccc2-c2nnn[nH]2)cc2c1OCCCC2C1CC1 (single isomer, unassigned) [38 (En. 2), 1-(7-(2-(1H-tetrazol-5-yl)phenyl)-5-cyclopropyl-2,3,4,5-tetrahydrobenzo[b]oxepin-9-yl)-3-(2-fluorophenyl)urea]
The pIC50 of the first is 2.25 log units lower: 5.46 for the first, 7.71 for the second. The second is the more potent here.

Compared with `O=C(Nc1cc(-c2ccccc2-c2nnn[nH]2)cc2c1OCCCC2c1ccccc1)NC1CC1` (single isomer, unassigned) [23 (En. 2), 1-(7-(2-(1H-tetrazol-5-yl)phenyl)-5-phenyl-2,3,4,5-tetrahydrobenzo[b]oxepin-9-yl)-3-cyclopropylurea], `O=C(Cc1ccccc1F)Nc1cc(-c2ccccc2-c2nnn[nH]2)cc2c1OCCCC2C1CC1` (single isomer, unassigned) [40 (En. 1), N-(7-(2-(1H-tetrazol-5-yl)phenyl)-5-cyclopropyl-2,3,4,5-tetrahydrobenzo[b]oxepin-9-yl)-2-(2-fluorophenyl)acetamide] is higher in pIC50: less than 5.22 for the first, 6.66 for the second. The second is the more potent here.

Compared with `Cc1ccc(CC(=O)Nc2cc(-c3ccccc3-c3nnn[nH]3)cc3c2OCCCC3C(C)C)cc1` (single isomer, unassigned) [25 (En. 1), N-(7-(2-(1H-tetrazol-5-yl)phenyl)-5-isopropyl-2,3,4,5-tetrahydrobenzo[b]oxepin-9-yl)-2-(p-tolyl)acetamide], `CCC(C)C1CCCOc2c(NC(=O)Cc3ccc(C)cc3)cc(-c3ccccc3-c3nnn[nH]3)cc21` (single isomer, unassigned) [30 (Dia. mix 1), N-(7-(2-(1H-tetrazol-5-yl)phenyl)-5-(sec-butyl)-2,3,4,5-tetrahydrobenzo[b]oxepin-9-yl)-2-(p-tolyl)acetamide] is 0.43 log units lower in pIC50: 7.54 for the first, 7.11 for the second. The first is the more potent here.

Going from `Cc1ccc(CC(=O)Nc2cc(-c3ccccc3-c3nnn[nH]3)cc3c2OCCCC3C(C)C)cc1` (single isomer, unassigned) [25 (En. 2), N-(7-(2-(1H-tetrazol-5-yl)phenyl)-5-isopropyl-2,3,4,5-tetrahydrobenzo[b]oxepin-9-yl)-2-(p-tolyl)acetamide] to `CCC(C)C1CCCOc2c(NC(=O)Cc3ccc(C)cc3)cc(-c3ccccc3-c3nnn[nH]3)cc21` (single isomer, unassigned) [30 (Dia. mix 2), N-(7-(2-(1H-tetrazol-5-yl)phenyl)-5-(sec-butyl)-2,3,4,5-tetrahydrobenzo[b]oxepin-9-yl)-2-(p-tolyl)acetamide], the pIC50 rises from 7.15 to 7.93 (0.78 log units).

Compared with `Cc1ccc(-c2noc(Nc3cc(-c4ccccc4-c4nnn[nH]4)cc4c3OCCCC4c3ccccc3)n2)cc1` (single isomer, unassigned) [26 (En. 1), N-(7-(2-(1H-tetrazol-5-yl)phenyl)-5-phenyl-2,3,4,5-tetrahydrobenzo[b]oxepin-9-yl)-3-(p-tolyl)-1,2,4-oxadiazol-5-amine], `Cc1ccc(CC(=O)Nc2cc(-c3ccccc3-c3nnn[nH]3)cc3c2OCCCC3C2CC2)cc1` (single isomer, unassigned) [37 (En. 1), N-(7-(2-(1H-tetrazol-5-yl)phenyl)-5-cyclopropyl-2,3,4,5-tetrahydrobenzo[b]oxepin-9-yl)-2-(p-tolyl)acetamide] is 1.07 log units higher in pIC50: 5.59 for the first, 6.66 for the second.

Compared with `Cc1ccc(-c2noc(Nc3cc(-c4ccccc4-c4nnn[nH]4)cc4c3OCCCC4c3ccccc3)n2)cc1` (single isomer, unassigned) [26 (En. 2), N-(7-(2-(1H-tetrazol-5-yl)phenyl)-5-phenyl-2,3,4,5-tetrahydrobenzo[b]oxepin-9-yl)-3-(p-tolyl)-1,2,4-oxadiazol-5-amine], `Cc1ccc(CC(=O)Nc2cc(-c3ccccc3-c3nnn[nH]3)cc3c2OCCCC3C2CC2)cc1` (single isomer, unassigned) [37 (En. 2), N-(7-(2-(1H-tetrazol-5-yl)phenyl)-5-cyclopropyl-2,3,4,5-tetrahydrobenzo[b]oxepin-9-yl)-2-(p-tolyl)acetamide] is 1.14 log units higher in pIC50: 6.37 for the first, 7.51 for the second. The second is the more potent here.

Compared with `CCC(C)C1CCCOc2c(NC(=O)Cc3ccc(C)cc3)cc(-c3ccccc3-c3nnn[nH]3)cc21` (single isomer, unassigned) [30 (En. 1), N-(7-(2-(1H-tetrazol-5-yl)phenyl)-5-(sec-butyl)-2,3,4,5-tetrahydrobenzo[b]oxepin-9-yl)-2-(p-tolyl)acetamide], `Cc1ccc(CC(=O)Nc2cc(-c3ccccc3-c3nnn[nH]3)cc3c2OCCCC3C2CC2)c(F)c1` (single isomer, unassigned) [39 (En. 1)] is lower in pIC50: 8.39 for the first, less than 5.22 for the second. The first is the more potent here.

`Cc1ccc(CC(=O)Nc2cc(-c3ccccc3-c3nnn[nH]3)cc3c2OCCCC3C2CC2)c(F)c1` (single isomer, unassigned) [39 (En. 2)] gave a pIC50 of 7.49.

— patent US12145927B2 (BRISTOL-MYERS SQUIBB COMPANY, priority 2018, dated 2024)
